Read-outs that look alike come from different tables or passages of the source.

Data set [1] has as its system lymphoblastoid cell lines of ASD phenotype 1 patients. Nature of the data set: Energy production (NADH) in Biolog Phenotype Mammalian MicroArrays, phenotype 1 cells. Type of data set: cell-based, human. Conditions: cells exposed to the factor; Figure 1 (AUC) and Table 1. An excerpt: The phenotype 1 cohort (Phi) selected far in vitro experiments was composed by 14 males and 1 female (ratio 14:1), with an age range of 2-17 years (average 7.7).
From all subjects, blood samples were collected and lymphoblastoid cell lines generated. Briefly, tubes containing anticoagulant citrate dextrose (ACD) were used to collect blood samples via venipuncture, in order to ensure that the blood cells remained metabolically active. The tubes were kept at room temperature and processed within 24 hours.
Cell lines were obtained by immortalization of lymphocytes from blood samples using Epstein-Barr virus.
Energy production of cells was measured using commercially available Phenotype Mammalian MicroArrays (PM-Ms, Biolog, Hayward, Calif., USA).
The compound in each well was designed to be used by the cells, either as the sole energy source or as the metabolic effector influencing the utilization of an energy source (α-D-glucose) added in the cell suspension. […] Before plating, cell viability and number were assessed utilizing a BioRad cell counter and a trypan blue dye. The concentration of live cells required for plating was 4×10^5 cells/mL, corresponding to 20,000 cells per well in a volume of 50 μL. […] Cells were incubated for 48 h at 37° C. in 5% CO2, using the modified Biolog IF-M1 medium.
The Biolog IF-M1 medium was modified for plates PM-M1 to M4 by adding the following to 100 mL of Biolog IF-M1: 1.1 mL of 100× penicillin/streptomycin solution, 0.18 mL of 200 mM glutamine (final concentration 0.3 mM), and 5.3 mL of Fetal Bovine Serum (FBS, final concentration 5%). For plates PM-M5 to M8, 5.5 mM α-D-glucose will be added in place of FBS.
During the 48-hour incubation, the only energy source the cells had was the chemical in the well. After this first incubation, Biolog Redox Dye Mix MB was added (10 μL/well) and the plates were incubated under the same conditions for an additional 24 hours. As the cells metabolized the energy source, tetrazolium dye in the media was reduced, producing a purple color according to the amount of NADH generated.
For the last 24 hours of the experiment, the plates were incubated in the Omnilog system, which collects optical density readings every 15 minutes, generating 96 data-points for each well. The system also elaborated the kinetic curve for the metabolic reaction in each well and extrapolated parameters such as slope, highest point, endpoint, area under the curve (AUC), and lag.
At the end of the 24-hour incubation, the plates were analyzed utilizing a microplate reader with readings at 590 and 750 nm. The first value (A590) indicated the highest absorbance peak of the redox dye and the second value (A750) gave a measure of the background noise. The relative absorbance (A590-750) was calculated per well.

A further data set has as its system humans. Conditions: cited from earlier work.
The subject of another data set is ASD phenotype 2 patients. Conditions: for Clinical significance (CGI-I): after 3 days of sulforaphane administration; for ADI-R-RI S score / ADI-R-C S score / ADI-R-SI S score: day 3 of challenge test, given as broccoli sprout extract as in example 3; for ADI-R-SI S score: B score 16. As for the experimental part: The effects of sulforaphane containing Broccoli sprout extract was observed and quantified in 7 individuals suffering from ASD and previously classified as either phenotype 1 or phenotype 2 patients.
We describe a procedure consisting of an evaluation of patients with ASD prior and after administration of broccoli sprout extract. The extract was prepared from selected broccoli seeds known to have high yield of sulforaphane which were surface-disinfected and grown (sprouted) for 3 days in a commercial sprouting facility under controlled light and moisture conditions. A boiling water extract was prepared, filtered, cooled, and treated with the enzyme myrosinase (from daikon sprouts) to convert precursor glucosinolates to isothiocyanates. Behavioral evaluation of patients was performed prior, during and after administration of sulforaphane-containing broccoli sprout extract. Baseline evaluation of patients was performed using standard clinical endpoints (ADI-R subscales ADI-SI, ADI-C and ADI-RI).
Challenge regimen consisted of the administration of a Broccoli Sprout Extract dose corresponding to a total daily dosage of 4 μmol/kg of sulforaphane, administered in 3 doses over the course of the day.
The assessment of baseline scores and post challenge test scores was conducted by two experienced clinicians with extensive experience in conducting ASD clinical assessments, both of which separately rated the patients. In case of diverging scores in test subscales at baseline or after administration of the challenge test, the lowest severity score was retained. Assessment of clinical endpoints was performed at day 3 of administration of challenge test. Behavioral Outcome Measures: (primary efficacy endpoints): ABC, SRS; CGI-S, CGI-I and ADI-R (ADI-SI, ADI-C, ADI-RI).

[2] abbreviates: Example 4 Patient 1 (phenotype 2).
Where [3] appears, read: Example 4 Patient 2 (phenotype 2).

Take “hGH(Somatotropin): growth factor that selectively targets the PI3K-Akt-mTOR pathway”: in data set [1], the “production of NADH in ASD phenotype 1 cells compared to TDs and non-phenotype 1 cells” value is recorded as “significantly reduced production of NADH”.
As for `C[S@@+]([O-])CCCCN=C=S` [sulforaphane, 1-isothiocyanato-4R-(methylsulfinyl)butane], the “tolerability of administration to humans” value in the data set with humans (humans) was “well tolerated”. Also, in the data set on humans (in vivo), the toxicity result was “low toxicity”. For the same compound, the “Clinical significance (CGI-I)” value in the data set on ASD phenotype 2 patients (setting [2]) and with ASD phenotype 2 patients (setting [3]) was “Very much improved” throughout. Moreover, the “ADI-R-RI S score” value is 3 with ASD phenotype 2 patients (Example 4 Patient 1 (phenotype 2), B score 3) and 4 with ASD phenotype 2 patients (Example 4 Patient 2 (phenotype 2), B score 5). Further, the “ADI-R-C S score” value with ASD phenotype 2 patients (Example 4 Patient 1 (phenotype 2), B score 12) was 10; with ASD phenotype 2 patients (Example 4 Patient 2 (phenotype 2), B score 11), 9. Further, the “ADI-R-SI S score” value in the data set on ASD phenotype 2 patients (setting [2]) was 12; in the data set on ASD phenotype 2 patients (setting [3]), 14.
Consider IL-1beta: Th1 cytokine, for which the “production of NADH in ASD phenotype 1 cells compared to TDs and non-phenotype 1 cells” value in data set [1] is “significantly lower levels of NADH”.
On the same count and under the same terms, to IL-6: Th1 cytokine belongs “significantly lower levels of NADH”; to IGF-I: insulin-like growth factor 1, “no significant differences”; to “PDGF-AB: platelet-derived growth factor AB”, “no significant differences”.
As to “FGF-1(aFGF): growth factor that selectively targets the PI3K-Akt-mTOR pathway”, in data set [1], the “production of NADH in ASD phenotype 1 cells compared to TDs and non-phenotype 1 cells” value is “significantly reduced production of NADH”.

(Values after patent US11364311B2, “Method of identifying ASD phenotype 1 patients” (Stalicla S.A., priority 2017, dated 2022).)
